Data: PubChem BioAssay AID330 (DTP/NCI, 2004)
Inconclusive results and toxic doses are left out. Rule for the calls: active = survival T/C of 150% or more; inactive = T/C below 125% in these data.

Tested on: P388 leukemia ip, CD2F1 mice, survival T/C
Assay: NCI In Vivo Anticancer Drug Screen. Data for tumor model P388 Leukemia (intraperitoneal) in CD2F1 (CDF1) mice
Conditions: endpoint: median survival time, higher = longer survival
In short: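 Mice carrying the transplanted tumor received test compound or vehicle. Survival was recorded in each group, and the value is the treated-group measurement divided by that of the vehicle-treated control group.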

[1] = dose: 50.0 mg/kg/injection, schedule: Q01DX005 (ip), vehicle: saline
[2] = dose: 60.0 mg/kg/injection, schedule: Q01DX005 (ip), vehicle: saline
[3] = dose: 120.0 mg/kg/injection, schedule: Q01DX005 (ip), vehicle: saline
[4] = dose: 240.0 mg/kg/injection, schedule: Q01DX005 (ip), vehicle: saline
[5] = dose: 50.0 mg/kg/injection, schedule: Q01DX005 (ip), vehicle: saline with Tween-80
[6] = dose: 100.0 mg/kg/injection, schedule: Q01DX005 (ip), vehicle: saline with Tween-80
[7] = dose: 200.0 mg/kg/injection, schedule: Q01DX005 (ip), vehicle: saline with Tween-80
[8] = dose: 50.0 mg/kg/injection, schedule: Q01DX005 (ip), vehicle: Klucel (hydroxypropylcellulose) (HPC)
[9] = dose: 100.0 mg/kg/injection, schedule: Q01DX005 (ip), vehicle: Klucel (hydroxypropylcellulose) (HPC)
[10] = dose: 200.0 mg/kg/injection, schedule: Q01DX005 (ip), vehicle: Klucel (hydroxypropylcellulose) (HPC)
[11] = dose: 6.25 mg/kg/injection, schedule: Q01DX005 (ip), vehicle: saline with Tween-80
[12] = dose: 60.0 mg/kg/injection, schedule: Q01DX005 (ip), vehicle: saline with Tween-80
[13] = dose: 120.0 mg/kg/injection, schedule: Q01DX005 (ip), vehicle: saline with Tween-80
[14] = dose: 240.0 mg/kg/injection, schedule: Q01DX005 (ip), vehicle: saline with Tween-80
[15] = dose: 50.0 mg/kg/injection, schedule: Q01DX009 (ip), vehicle: suspension in saline
[16] = dose: 100.0 mg/kg/injection, schedule: Q01DX009 (ip), vehicle: suspension in saline

Measured: T/C

CC12CC3(C)C(Br)C3CC1O2 (stereo unspecified)
inactive: dose: 44.5 mg/kg/injection, schedule: Q01DX005 (ip), vehicle: saline with Tween-80 97 % of control | dose: 89.0 mg/kg/injection, schedule: Q01DX005 (ip), vehicle: saline with Tween-80 99 % of control | dose: 178.0 mg/kg/injection, schedule: Q01DX005 (ip), vehicle: saline with Tween-80 99 % of control

Cc1cc(O)c(-c2c(-c3ccccc3C(=O)O)oc3cc(C)c(C)cc23)cc1C
inactive: dose: 50.0 mg/kg/injection, schedule: Q01DX009 (ip), vehicle: saline 89 % of control | dose: 100.0 mg/kg/injection, schedule: Q01DX009 (ip), vehicle: saline 89 % of control | dose: 200.0 mg/kg/injection, schedule: Q01DX009 (ip), vehicle: saline 90 % of control

Cc1ncc(COP(=O)(O)O)c(C2NC(C(=O)O)CS2)c1O (stereo unspecified)
inactive: [1] 115 % of control | [2] 92 % of control | dose: 100.0 mg/kg/injection, schedule: Q01DX005 (ip), vehicle: saline 107 % of control | [3] 94 % of control | dose: 200.0 mg/kg/injection, schedule: Q01DX005 (ip), vehicle: saline 113 % of control | [4] 91 % of control

Cc1nc2ccccc2c(=O)n1/N=C/c1cccc([N+](=O)[O-])c1
inactive: [5] 104 % of control | [6] 99 % of control | [7] 98 % of control

Nc1ccc(S(=O)(=O)NC2C(O)OC(CO)C(O)C2O)cc1 (stereo unspecified)
inactive: [5] 98 % of control | [6] 96 % of control | [7] 97 % of control

O=C(NC(Cc1ccc([N+](=O)[O-])cc1)C(=O)O)c1ccccc1 (stereo unspecified)
inactive: dose: 25.0 mg/kg/injection, schedule: Q01DX009 (ip), vehicle: other 104 % of control | dose: 50.0 mg/kg/injection, schedule: Q01DX009 (ip), vehicle: other 110 % of control | dose: 100.0 mg/kg/injection, schedule: Q01DX009 (ip), vehicle: other 104 % of control

Cn1ccnc1C[Si](C)(C)C
inactive: dose: 45.5 mg/kg/injection, schedule: Q01DX005 (ip), vehicle: saline with Tween-80 99 % of control | dose: 91.0 mg/kg/injection, schedule: Q01DX005 (ip), vehicle: saline with Tween-80 107 % of control | dose: 182.0 mg/kg/injection, schedule: Q01DX005 (ip), vehicle: saline with Tween-80 108 % of control

CC1C2C1C1C3NN=CC3C2n2c(=O)n(-c3ccccc3)c(=O)n21 (stereo unspecified)
inactive: [8] 99 % of control | [9] 100 % of control | [10] 105 % of control

COc1ccccc1C(=O)c1ccccc1C(=O)O
inactive: [8] 101 % of control | [9] 105 % of control | [10] 103 % of control

CCC[P+](C)(CCC#N)c1ccccc1 (stereo unspecified)
inactive: dose: 12.5 mg/kg/injection, schedule: Q01DX009 (ip), vehicle: Klucel (hydroxypropylcellulose) (HPC) 108 % of control

Cc1cc(C)nc(NS(=O)(=O)c2ccc(NC(=O)C(Cl)(Cl)Cl)cc2)n1
inactive: [11] 104 % of control | dose: 12.5 mg/kg/injection, schedule: Q01DX005 (ip), vehicle: saline with Tween-80 101 % of control | dose: 25.0 mg/kg/injection, schedule: Q01DX005 (ip), vehicle: saline with Tween-80 94 % of control

CC1(C)SC(C2NC(=O)C(c3ccccc3)NC2=O)NC1C(=O)O (stereo unspecified)
inactive: dose: 60.0 mg/kg/injection, schedule: Q01DX005 (ip), vehicle: Klucel (hydroxypropylcellulose) (HPC) 105 % of control | dose: 120.0 mg/kg/injection, schedule: Q01DX005 (ip), vehicle: Klucel (hydroxypropylcellulose) (HPC) 99 % of control | dose: 240.0 mg/kg/injection, schedule: Q01DX005 (ip), vehicle: Klucel (hydroxypropylcellulose) (HPC) 101 % of control

CC(Oc1ccccc1)C(=O)N=c1scc(-c2ccc(Br)cc2)n1-c1cccc2ccccc12 (stereo unspecified)
inactive: dose: 6.25 mg/kg/injection, schedule: Q01DX009 (ip), vehicle: gum acacia 106 % of control | dose: 12.5 mg/kg/injection, schedule: Q01DX009 (ip), vehicle: gum acacia 106 % of control | dose: 25.0 mg/kg/injection, schedule: Q01DX009 (ip), vehicle: gum acacia 105 % of control | dose: 50.0 mg/kg/injection, schedule: Q01DX009 (ip), vehicle: gum acacia 101 % of control | dose: 100.0 mg/kg/injection, schedule: Q01DX009 (ip), vehicle: gum acacia 92 % of control | dose: 200.0 mg/kg/injection, schedule: Q01DX009 (ip), vehicle: gum acacia 98 % of control

Cc1nc(Br)c(Br)n1Cc1ccccc1
inactive: [12] 99 % of control | [13] 99 % of control | [14] 105 % of control

Cc1ccccc1C1C(C#N)C(=O)NC(=O)C1C#N (stereo unspecified)
inactive: dose: 50.0 mg/kg/injection, schedule: Q01DX009 (ip), vehicle: Klucel (hydroxypropylcellulose) (HPC) 102 % of control | dose: 100.0 mg/kg/injection, schedule: Q01DX009 (ip), vehicle: Klucel (hydroxypropylcellulose) (HPC) 106 % of control | dose: 200.0 mg/kg/injection, schedule: Q01DX009 (ip), vehicle: Klucel (hydroxypropylcellulose) (HPC) 110 % of control

C=CCC1C=CC=CN1C(=O)OCC (stereo unspecified)
inactive: [2] 113 % of control | [3] 113 % of control | [4] 98 % of control

CCCCN(CCCC)Cc1c(C)[nH]c2ccc(N(C)C)cc2c1=O
inactive: [15] 108 % of control | [16] 103 % of control

C#CC1OC12CCC1C3CC=C4CC(O)CCC4(C)C3CCC12 (stereo unspecified)
inactive: [15] 93 % of control | [16] 94 % of control | dose: 200.0 mg/kg/injection, schedule: Q01DX009 (ip), vehicle: suspension in saline 87 % of control

CCOc1cccc2c1NC(C)=C(C(=O)c1ccccc1)S2
inactive: [12] 100 % of control | [13] 95 % of control | [14] 91 % of control

NNC(N)=NC1CCCCC1
inactive: [8] 95 % of control | [9] 97 % of control

N#CN(Cc1ccccc1)Cc1ccccc1.[Cl][Sn]([c]1ccccc1)([c]1ccccc1)[c]1ccccc1
inactive: dose: 3.12 mg/kg/injection, schedule: Q01DX005 (ip), vehicle: saline with Tween-80 98 % of control | [11] 95 % of control

CC1(C)CC(O)C2(CO)C(C1)C1=CCC3C4(C)CCC(O)C(C)(C)C4CCC3(C)C1(C)C(O)C2O (stereo unspecified)
inactive: dose: 5.25 mg/kg/injection, schedule: Q01DX005 (ip), vehicle: Klucel (hydroxypropylcellulose) (HPC) 100 % of control | dose: 10.5 mg/kg/injection, schedule: Q01DX005 (ip), vehicle: Klucel (hydroxypropylcellulose) (HPC) 103 % of control | dose: 21.0 mg/kg/injection, schedule: Q01DX005 (ip), vehicle: Klucel (hydroxypropylcellulose) (HPC) 94 % of control | dose: 42.0 mg/kg/injection, schedule: Q01DX005 (ip), vehicle: Klucel (hydroxypropylcellulose) (HPC) 99 % of control

C[n+]1cc2ccccc2c2ccccc21
inactive: dose: 3.13 mg/kg/injection, schedule: Q01DX009 (ip), vehicle: saline 108 % of control | dose: 6.25 mg/kg/injection, schedule: Q01DX009 (ip), vehicle: saline 117 % of control | dose: 12.5 mg/kg/injection, schedule: Q01DX005 (ip), vehicle: saline 100 % of control | dose: 12.5 mg/kg/injection, schedule: Q01DX009 (ip), vehicle: saline 120 % of control | dose: 25.0 mg/kg/injection, schedule: Q01DX005 (ip), vehicle: saline 110 % of control | dose: 25.0 mg/kg/injection, schedule: Q01DX009 (ip), vehicle: water 122 % of control | [1] 101 % of control | dose: 50.0 mg/kg/injection, schedule: Q01DX009 (ip), vehicle: water 113 % of control
